The text below walks through data of ChEMBL document CHEMBL5223098, “Prodrugs of pyrophosphates and bisphosphonates: disguising phosphorus oxyanions” (RSC Med Chem, 2022).

Some results are limits rather than exact numbers.

Data set [1] in a line: Half-life of the compound in 80% human serum by HPLC analysis. In kind it is ADME, cell-free. Conditions: 80% serum.
Data set [2] can be described thus: Apparent partition coefficient, logPapp of the compound in pH 7.4 phosphate buffer incubated for 30 mins by HPLC analysis. Format: physicochemical.
Data set [3] is described as follows: 1-Octanol/phosphate buffer apparent partition coefficient, logPapp of the compound at pH 7.4 by shake-flask method. Format: physicochemical.
Data set [4] in a line: Half life of the compound in pH 7.0 TEAA buffer. Format: physicochemical.
The nature of data set [5]: Half life of the compound in RPMI medium. In kind it is physicochemical.
Data set [6] can be described thus: Apparent partition coefficient, logPapp of the compound by HPLC analysis. In kind it is physicochemical. Conditions: octanol/water.
The nature of data set [7]: Half-life of the compound in pH 7.3 PBS buffer. In kind it is physicochemical.
Data set [8] in a line: Half-life of the compound in human CEM/0 cell extract at pH 6.9. Format: ADME, CCRF-CEM.
The nature of data set [9]: Half-life of the compound in pH 7.4 phosphate buffer by HPLC analysis. Format: physicochemical.
Data set [10] can be described thus: Half-life of the compound in pH 2.0 phosphate buffer by HPLC analysis. Format: physicochemical.
The subject of data set [11] is Human immunodeficiency virus 2. The experiment in a line: Antiviral activity against HIV2 infected in human CEM-TK(-) cells assessed as inhibition of viral replication incubated for 4 to 5 days by microscopic analysis. In kind it is functional, organism-based. Conditions: Human immunodeficiency virus 2, CEM-TK(-).
Data set [12] relates to Human immunodeficiency virus 2. The data set can be described thus: Potency index, ratio of d4T EC50 to test compound EC50 for antiviral activity against HIV2 infected in human CEM-TK(-) cells assessed as inhibition of viral replication incubated for 4 to 5 days by microscopic analysis. In kind it is functional. Particulars: time 4-5 day.
Data set [13] can be described thus: Octanol-water partition coefficient, logP of the compound by shake-flask method. In kind it is physicochemical.
The nature of data set [14]: Half-life of the compound in pH 5.0 phosphate buffer by HPLC analysis. Format: physicochemical.
Data set [15] in a line: Half-life of the compound in 10% rabbit liver homogenate by HPLC analysis. Format: ADME, tissue-based, Oryctolagus cuniculus. Conditions: 10% liver homogenate.
Data set [16] can be described thus: 1-Octanol/phosphate buffer apparent partition coefficient, logPapp of the compound by shake-flask method. In kind it is physicochemical.
Data set [17] is described as follows: Half-life of the compound in human serum by HPLC analysis. In kind it is ADME, cell-free.
Data set [18] in a line: Time for quantitative release of etidronate in 10% rabbit liver homogenate. Conditions: 10% liver homogenate.

For orientation: half-life means the time needed for the level to fall by half in the phase considered. A low value points to rapid decline. One may read the logD as the decadic logarithm of the distribution of all forms, ionised or not, between an organic phase and buffer at a given pH. In [1], `CC(C)(C)C(=O)OP(=O)(O)C(Cl)(Cl)P(=O)(O)OC(=O)C(C)(C)C` showed a half-life of 3.3 h. The logD at 0.5 h in data set [2] is -2.3.

In the case of `CC(C)(C)C(=O)OCOP(=O)(OCOC(=O)C(C)(C)C)C(Cl)(Cl)P(=O)(OCOC(=O)C(C)(C)C)OCOC(=O)C(C)(C)C`, the logD in data set [3] is 7.4.

On to `CCCCCCCCCCCCCC(=O)OP(=O)(O)OP(=O)(O)OC[C@H]1O[C@@H](n2cc(C)c(=O)[nH]c2=O)C[C@@H]1N=[N+]=[N-]`, for which the figures for the half-life in data set [4] and in data set [5] were 114 h and 1.7 h, respectively.

Take `CC(=O)OC(C)(P(=O)(OCOC(=O)C(C)(C)C)OCOC(=O)C(C)(C)C)P(=O)(OCOC(=O)C(C)(C)C)OCOC(=O)C(C)(C)C`: the logD in data set [6] amounted to 7.4.

For the molecule `CC(=O)Oc1ccc(COP(=O)(OCc2ccc(OC(C)=O)cc2)OP(=O)(O)OC[C@H]2O[C@@H](n3cc(C)c(=O)[nH]c3=O)C[C@@H]2N=[N+]=[N-])cc1`, the half-life in data set [7] is 17 h; in [8], 2 min.

Take `CCCC(=O)OP(=O)(O)C(Cl)(Cl)P(=O)(O)OC(=O)CCC`: the half-life in [9] was 15.2 h; in [10], 0.75 h. In addition, the logD at 0.5 h in data set [2] is -2.3.

Take `O=C(OP(=O)(O)C(Cl)(Cl)P(=O)(O)OC(=O)c1ccccc1)c1ccccc1`: the logD at 0.5 h in data set [2] was -2.3.

`CC(=O)OP(=O)(O)C(Cl)(Cl)P(=O)(O)OC(C)=O`: the half-life is 15.2 h in data set [9] and 0.75 h in data set [10]. Also, in data set [2], the logD at 0.5 h was -2.3.

As a reminder, the EC50 is the concentration needed to bring the measured effect to its halfway point. In the case of `Cc1cn([C@H]2C=C[C@@H](COP(=O)(O)OP(=O)(OCc3ccc(OC(=O)c4ccccc4)cc3)OCc3ccc(OC(=O)c4ccccc4)cc3)O2)c(=O)[nH]c1=O`, the EC50 in data set [11] worked out at 0.85 µM. The “Ratio EC50” value in data set [12] is given as 82.

As to `Cc1cn([C@H]2C=C[C@@H](CO)O2)c(=O)[nH]c1=O` [STAVUDINE], in data set [11], the EC50 amounted to 70 µM.

What is called logP is the decadic logarithm of the partition coefficient of the neutral form, usually between octanol and water. High values mean higher lipophilicity, low ones lower lipophilicity. Turning to `COc1ccc(OP(=O)(O)C(O)(c2cccc(Br)c2)P(=O)(O)Oc2ccc(OC)cc2)cc1` (stereo not drawn), the logP in data set [13] was -0.31.

For `CC(C)(C)C(=O)OCOP(=O)(O)C(Cl)(Cl)P(=O)(OCOC(=O)C(C)(C)C)OCOC(=O)C(C)(C)C`, in data set [3], the logD came to 1.6. Besides, the half-life is above 1 h in [14], above 1 h in data set [9] and 0.0183 h in data set [15].

`CC(=O)OC(C)(P(=O)(O)OCOC(=O)C(C)(C)C)P(=O)(OCOC(=O)C(C)(C)C)OCOC(=O)C(C)(C)C` (stereo not drawn): the half-life is 252 h in data set [14], 163 h in [9], 0.045 h in data set [15] and 4.8 h in data set [17]. In data set [16], the logD worked out at 0.6.

`CCCCCCCC(=O)Oc1ccc(COP(=O)(OCc2ccc(OC(=O)CCCCCCC)cc2)OP(=O)(O)OC[C@@H]2C=C[C@H](n3cc(C)c(=O)[nH]c3=O)O2)cc1`: the EC50 in data set [11] stood at 2.6 µM. In addition, the “Ratio EC50” value in [12] is on record as 27.

Take `CC(O)(P(=O)(O)O)P(=O)(O)O` [ETIDRONIC ACID]: the time to quantitative release in [18] turned out to be 3300 min.

As for `CC(C)(C)C(=O)OCOP(=O)(O)C(Cl)(Cl)P(=O)(O)OCOC(=O)C(C)(C)C`, in data set [3], the logD was -2.1. Further, the half-life in data set [15] is 0.233 h.
